Laboratory results taken from ChEMBL document CHEMBL1157539, “Thousands of chemical starting points for antimalarial lead identification” (Nature, 2010).

Tested on: Plasmodium falciparum
Assay: GSK_TCMDC: Inhibition of Plasmodium falciparum 3D7 in whole erythrocytes, using parasite LDH activity as an index of growth.
Assay type: functional, organism-based
Conditions: Plasmodium falciparum, 3D7

Structure (SMILES)	XC50 [nM]
CN(C)c1nc(NCc2ccccc2)nc(N/N=C/c2cc([N+](=O)[O-])ccc2O)n1	685
CC1CCC2(CC1)N=C(N)N=C(N)N2OCc1ccc(Br)c2ccccc12 (stereo not given)	216
O=C(NCc1ccc(F)cc1)Nc1ccc(-c2cccc(-c3nc4cc(C(F)(F)F)ccc4[nH]3)c2)cc1	946
Cn1nc(-c2cccc(CN[C@@H]3CCc4ccc(O)cc43)c2)c2cnc(NC3CCCC3)nc21	736
O=C(Nc1cc(Cl)cc(Cl)c1)Nc1ccnc2ccccc12	745
Cc1cc(Br)c(OCCCON2C(=N)N=C(N)NC2(C)C)c(Br)c1	3.2
c1ccc(C2CCN(Cc3ccc(-c4c[nH]c5nc(NC6CCCC6)ncc45)cc3)CC2)cc1	1010
C=CCOC(=O)N1CCC(CNCc2ccc(-c3ccc(-c4nc5cc(C(F)(F)F)ccc5[nH]4)cc3)cc2)C1 (stereo not given)	150
CC(C)(C)c1ccc(CNC(=O)c2cc(CNC3CCC(N)CC3)ccc2O)cc1 (stereo not given)	1030
COc1c(CN2CCCC2)cccc1-c1cc2c(-c3ccc(C(=O)O)c(C(C)C)c3)ccnc2[nH]1	439
NOCCCOc1ccc(Cl)cc1	574
Cc1ccc(CN2CCCCC(NC(=O)c3cc4ccccc4s3)C2)cc1 (stereo not given)	900
Cc1ccccc1N1CCN(c2ncc(C(=O)NC3CC3)cc2Cl)CC1	628
CCCc1cc(Cc2cnc(N)nc2N)cc(CCC)c1OC	893
Cc1nnsc1C(=O)Nc1ccc(-c2ccc(-c3nc4cccc(C)c4[nH]3)s2)cc1	594
CCCCc1cc(NCc2ccncc2)nc(Nc2ccc(C)cc2)n1	794
Cc1cccc2nc(-c3ccc(-c4ccc(CNCC5CCCO5)cc4)s3)[nH]c12 (stereo not given)	739
O=C(Cc1cccc(Cl)c1)Nc1ccc(N2CCC(NCc3ccc4ncccc4c3)CC2)cc1	1230
O=C(/C=C/c1ccc(Cl)c(Cl)c1)NC1CCC(CN2CCC(c3c[nH]c4cc(O)ccc34)CC2)CC1 (stereo not given)	813
NC1=NC2(CCCCC2)N(Cc2ccc(Cl)c(Cl)c2)C(N)=N1	623

Structure (SMILES)	XC50 [nM]
COc1ccc(CC(C)NCC(O)c2cccc(C(F)(F)F)c2)cc1 (stereo not given)	1580
CCCCOc1cc2c(cc1OCC)C(C=Cc1ccc(Cl)cc1Cl)=NCC2	403
c1ccc2[nH]c(-c3ccc(-c4ccc(CNC5CC5)cc4)s3)nc2c1	1050
Cc1cc(N[C@@H](CC(C)C)C(=O)NCCOc2ccccc2)nc(NCC2CCCCC2)n1	972
COCCn1c(Sc2ccc(C#N)c([N+](=O)[O-])c2)nnc1-c1ccc(N(C)C)cc1	1030
O=C(/C=C/c1ccc2ccccc2c1)NC1CCC(CN2CCC(c3c[nH]c4ccccc34)CC2)CC1 (stereo not given)	727
COc1ccc(-c2cccc(NC(=O)c3cccc(Cl)c3)c2)cc1CN1CCCN(C)CC1	231
COc1cccc(-c2ccc(C(=O)NC3CCN(Cc4ccc(N(C)C)cc4)CC3)s2)c1	1390
COc1cccc(-c2cc3nc4c(c(NCCCn5ccnc5)n3n2)CCCC4)c1	681
O=C(Nc1ccc(CCNC2=NCCN2)cc1)Nc1ccc(CCNC2=NCCN2)cc1	789
O=C(/C=C/c1c(Cl)cccc1Cl)NC1CCC(CN2CCC(c3c[nH]c4ccncc34)CC2)CC1 (stereo not given)	158
OC1(c2ccccc2)CCN(Cc2cccc(-c3c[nH]c4nc(NC5CCCC5)ncc34)c2)C1 (stereo not given)	914
C=C[C@H]1CN2CC[C@H]1C[C@H]2[C@H](O)c1cc(-c2ccc(Cl)cc2)nc2ccc(OC)cc12	30.3
Cc1cccc2nc(-c3ccc(-c4ccc(CN5CCCCC5CO)cc4)cc3)[nH]c12 (stereo not given)	808
CN(C)CCN(C)C(=O)c1cc(-c2ccncc2)c(-c2ccc(Cl)c(O)c2)o1	1050
CC(O)C1CCCCN1C(=O)c1cccc(-c2cccc(-c3nc4ccccc4[nH]3)c2)c1 (stereo not given)	534
CC12CCC(=O)N1C(C(=O)Nc1cccc(C(=O)Nc3cccc(C(F)(F)F)c3)c1)CS2 (stereo not given)	358
Cc1cc2nc(-c3cc(-c4cccc(NS(C)(=O)=O)c4)cnc3N)[nH]c2cc1C	672
COc1nc2c(CCN3CC[C@@H](NCc4cc(C#N)c5c(c4)CCO5)[C@@H](O)C3)ccnc2cc1F	1030
CCc1c(CCNCCCCCCNCCc2ccccc2)ccc(OC)c1OC	800
